Reference: patent US12116343B2, “Inhibitors of APOL1 and methods of using same” (Vertex Pharmaceuticals Incorporated, priority 2020, dated 2024)
pIC50: −log10 of the molar value.

Target: T1, G1 APOL1 (Homo sapiens, UniProt O14791, I384M/S342G)
T1 construct: expressed in transfected cells
T1 sequence (O14791 28-398 S342G/I384M): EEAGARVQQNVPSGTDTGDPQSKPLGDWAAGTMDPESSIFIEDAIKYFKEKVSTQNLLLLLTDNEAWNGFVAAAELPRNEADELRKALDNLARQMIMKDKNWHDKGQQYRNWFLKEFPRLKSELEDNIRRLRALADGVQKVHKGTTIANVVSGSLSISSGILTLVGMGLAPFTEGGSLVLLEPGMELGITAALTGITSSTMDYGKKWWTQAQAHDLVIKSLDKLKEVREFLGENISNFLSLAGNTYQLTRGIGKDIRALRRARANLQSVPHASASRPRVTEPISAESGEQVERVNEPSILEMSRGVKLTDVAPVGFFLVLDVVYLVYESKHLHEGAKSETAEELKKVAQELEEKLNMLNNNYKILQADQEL
Experiment: Acute APOL1 Thallium Assay with inducible stable clones of HEK 293 cells
Format: cell-based
Conditions: Table 24, Compounds 287 to 465; read-out: Thallium Assay (IC50)
In short: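 Tetracycline-inducible HEK293 T-Rex clone G1 DC3.25 expressing G1 APOL1, plated at 26000 cells/well in Opti-MEM with tetracycline induction. APOL1 pore activity read on FLIPR as fluorescence increase from Tl+ influx into cells loaded with a Tl+-sensitive AM-ester dye.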

## NC(=O)CNCC1CC(c2c(-c3ccc(F)cc3)[nH]c3c(F)cc(F)cc23)C1 (stereo not shown) [Compound 433, 2-(((3-(5,7-difluoro-2-(4-fluorophenyl)-1H-indol-3-yl)cyclobutyl)methyl)amino)acetamide]
  pIC50: > 6.60
